Experimental data: patent publication US10144746B2 (GLOBAL BLOOD THERAPEUTICS, INC., priority 2015, dated 2018)
Where a name gives a salt, the structure may show the parent alone.

What follows are compounds tested against Human plasma kallikrein (Homo sapiens (Human), UniProt P03952) (assay: In vitro plasma kallikrein inhibition assay (chromogenic substrate D-Pro-Phe-Arg-pNa, absorbance at 405 nm, IC50 determination)). Settings: not given.
Assay type: biochemical

Chain of Human plasma kallikrein (P03952 391-638): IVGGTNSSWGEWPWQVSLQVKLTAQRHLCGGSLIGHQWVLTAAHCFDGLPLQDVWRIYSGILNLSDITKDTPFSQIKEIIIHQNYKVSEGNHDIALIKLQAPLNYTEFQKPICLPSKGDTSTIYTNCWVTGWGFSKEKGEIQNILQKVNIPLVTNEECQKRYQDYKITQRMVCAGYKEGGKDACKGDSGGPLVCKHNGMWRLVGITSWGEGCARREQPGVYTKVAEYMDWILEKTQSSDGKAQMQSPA
Chain of Human plasma kallikrein (P03952 20-390 partner): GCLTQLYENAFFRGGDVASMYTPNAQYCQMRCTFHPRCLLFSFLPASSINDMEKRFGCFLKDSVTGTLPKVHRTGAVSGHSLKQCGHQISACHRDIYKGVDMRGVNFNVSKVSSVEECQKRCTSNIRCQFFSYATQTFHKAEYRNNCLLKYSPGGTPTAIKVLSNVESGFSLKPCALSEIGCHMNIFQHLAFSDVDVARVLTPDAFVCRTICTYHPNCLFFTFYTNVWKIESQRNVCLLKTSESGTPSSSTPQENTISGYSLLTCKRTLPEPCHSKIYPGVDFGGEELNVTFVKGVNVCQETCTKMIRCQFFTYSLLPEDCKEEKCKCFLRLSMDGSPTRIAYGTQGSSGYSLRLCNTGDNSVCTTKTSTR

| Compound | KLKB1 pIC50 |
| --- | --- |
| COc1cc(N)nc(C)c1CNC(=O)c1ccc2c(c1)C1OC2c2ccc(-c3ccc(F)cc3F)cc21 (stereo not shown) [Example 80] | 7.57 |
| COc1cc(N)nc(C)c1CNC(=O)c1ccc2c(c1)C1OC2c2ccc(-c3ccc(Cl)c(F)c3F)cc21 (stereo not shown) [Example 109, trifluoroacetate salt] | 7.59 |
| NC(=NO)c1ccc(CNC(=O)c2ccc3c(c2)[C@@H]2O[C@H]3c3ccc(-c4ccc(F)cc4F)cc32)cc1 [Example 203, (1R,8S)-12-(2,4-difluorophenyl)-N-{[4-(N′-hydroxycarbamimidoyl)phenyl]methyl}-15-oxatetracyclo[6.6.1.0^2,^7.0^9,1^4] pentadeca-2,4,6,9,11,13-hexaene-4-carboxamide] | 5.98 |
| NC(=NO)c1ccc(CNC(=O)c2ccc3c(c2)[C@@H]2O[C@H]3c3ccc(-c4ccccc4F)cc32)cc1 [Example 204, (1R,8S)-12-(2-fluorophenyl)-N-{[4-(N′-hydroxycarbamimidoyl)phenyl]methyl}-15-oxatetracyclo[6.6.1.0^2,^7.0^9,1^4] pentadeca-2,4,6,9,11,13-hexaene-4-carboxamide] | 6.03 |
| CON=C(N)c1ccc(CNC(=O)c2ccc3c(c2)[C@@H]2O[C@H]3c3ccc(-c4ccc(F)cc4F)cc32)cc1 [Example 225] | 5 |
| CON=C(N)c1ccc(CNC(=O)c2ccc3c(c2)[C@@H]2O[C@H]3c3ccc(-c4ccccc4F)cc32)cc1 [Example 240, (1R,8S)-12-(2-fluorophenyl)-N-{[4-(N′-methoxy-carbamimidoyl)phenyl]methyl}-15-oxatetracyclo-[6.6.1.0^2,^7.0^9,1^4]pentadeca-2,4,6,9,11,13-hexaene-4-carboxamide] | 4 |
| CON=C(N)c1ccc(CNC(=O)c2ccc3c(c2)[C@@H]2O[C@H]3c3ccc(-c4ccc(F)cc4)cc32)cc1 [Example 241, (1R,8S)-12-(4-fluorophenyl)-N-{[4-(N′-methoxy-carbamimidoyl)pheny]methyl}-15-oxatetracyclo-[6.6.1.0^2,^7.0^9,1^4]pentadeca-2,4,6,9,11,13-hexaene-4-carboxamide] | 4 |
| CON=C(N)c1ccc(CNC(=O)c2ccc3c(c2)[C@@H]2O[C@H]3c3ccc(-c4ccc(Cl)s4)cc32)cc1 [Example 251, (1S,8R)-12-(5-chlorothiophen-2-yl)-N-({4-[N′-methoxycarbamimidoyl]phenyl}methyl)-15-oxatetracyclo[6.6.1.0^2,^7.0^9,1^4] pentadeca-2,4,6,9,11,13-hexaene-4-carboxamide] | 4 |
| CON=C(N)c1cc(F)c(CNC(=O)c2ccc3c(c2)[C@@H]2O[C@H]3c3ccc(-c4ccc(F)cc4F)cc32)c(F)c1 [Example 255, (1R,8S)-N-({2,6-difluoro-4-[N′-methoxy-carbamimidoyl]phenyl}methyl)-12-(2,4-difluorophenyl)-15-oxatetracyclo[6.6.1.0^2,^7.0^9,1^4]-pentadeca-2,4,6,9,11,13-hexaene-4-carboxamide] | 6.18 |
| NC(=NO)c1cc(F)c(CNC(=O)c2ccc3c(c2)[C@@H]2O[C@H]3c3ccc(-c4ccc(F)cc4F)cc32)c(F)c1 [Example 266, (1R,8S)-N-({2,6-difluoro-4-[N′-hydroxy-carbamimidoyl]phenyl}methyl)-12-(2,4-difluorophenyl)-15-oxatetracyclo[6.6.1.0^2,^7.0^9,1^4]-pentadeca-2,4,6,9,11,13-hexaene-4-carboxamide] | 6.99 |
| CON=C(N)c1ccc(CNC(=O)c2ccc3c(c2)[C@@H]2O[C@H]3c3ccc(C4CC4)cc32)cc1 [Example 272, (1R,8S)-12-cyclopropyl-N-({4-[N′-methoxy-carbamimidoyl]phenyl}methyl)-15-oxatetracyclo[6.6.1.0^2,^7.0^9,1^4] pentadeca-2,4,6,9,11,13-hexaene-4-carboxamide] | 5.61 |
| CON=C(N)c1cc(F)c(CNC(=O)c2ccc3c(c2)[C@@H]2O[C@H]3c3ccc(-c4nccs4)cc32)c(F)c1 [Example 274] | 5.86 |
| NC(=NO)c1ccc(CNC(=O)c2ccc3c(c2)[C@@H]2O[C@H]3c3ccc(-c4ccc(Cl)s4)cc32)cc1 [Example 276, (1S,8R)-12-(5-chlorothiophen-2-yl)-N-{[4-(N′-hydroxycarbamimidoyl)phenyl]methyl}-15-oxatetracyclo[6.6.1.0^2,^7.0^9,1^4] pentadeca-2,4,6,9,11,13-hexaene-4-carboxamide] | 4 |
| (±)-N4-[(6-amino-2,4- dimethylpyridin-3-yl)methyl]- 11-cyano-15-oxatetracyclo- [6.6.1.0^2,^7.0^9,1^4]pentadeca- 2,4,6,9,11,13-hexaene-4,12- dicarboxamide and (±)-N4-[(6- amino-2,4-dimethylpyridin-3- yl)methyl]-12-cyano-15- oxatetracyclo[6.6.1.0^2,^7.0^9,1^4] pentadeca-2,4,6,9,11,13- hexaene-4,11-dicarboxamide [Example 333] | 5.64 |
| (±)-N-[(4-carbamimidoylphenyl) methyl]-12-(4- fluorophenyl)-8-methyl-15- oxatetracyclo- [6.6.1.0^2,^7.0^9,1^4]pentadeca- 2,4,6,9,11,13-hexaene-4- carboxamide [Example 346] | 7.26 |
| (±)-N-[(6-amino-2,4- dimethylpyridin-3-yl) methyl]-12-(2,4- difluorophenyl)tetracyclo- [6.6.1.0^2,^7.0^9,1^4]hexadeca- 2,4,6,9,11,13-hexaene-4- carboxamide and (±)-N-[(6- amino-2,4-dimethylpyridin- 3-yl)methyl]-11-(2,4- difluorophenyl)tetracyclo [6.6.1.0^2,^7.0^9,1^4]hexadeca- 2,4,6,9,11,13-hexaene-4- carboxamide [Example 261] | 6.32 |
| (±)-N-[(6-amino-2,4- dimethylpyridin-3-yl)-methyl]- 12-(2,4-difluorophenyl)-15- methyl-15-azatetracyclo [6.6.1.0^2,^7.0^9,1^4]pentadeca- 2,4,6,9,11,13- hexaene-4-carboxamide and (±)-N-[(6-amino-2,4- dimethylpyridin-3-yl)methyl]- 11-(2,4-difluorophenyl)-15- methyl-15-azatetra-cyclo [6.6.1.0^2,^7.0^9,1^4]pentadeca- 2,4,6,9,11,13-hexaene-4- carboxamide [Example 115] | 4 |
| (±)-N-[(6-amino-2,4- dimethylpyridin-3-yl)methyl]- 12-(4-fluorophenyl)-1,8- dimethyl-15- oxatetracyclo[6.6.1.0^2,^7.0^9,1^4] pentadeca-2,4,6,9,11,13- hexaene-4-carboxamide and (±)-N-[(6-amino-2,4- dimethylpyridin-3-yl)methyl]- 11-(4-fluorophenyl)-1,8- dimethyl-15-oxatetracyclo [6.6.1.0^2,^7.0^9,1^4]pentadeca- 2,4,6,9,11,13-hexaene-4- carboxamide [Example 339] | 4 |
| (±)-N-[(6-amino-2,4- dimethylpyridin-3-yl)methyl]- 12-(phenylsulfanyl)-15- oxatetracyclo[6.6.1.0^2,^7.0^9,1^4] pentadeca- 2,4,6,9,11,13-hexaene-4- carboxamide (±)-N-[(6-amino-2,4- dimethylpyridin-3-yl)methyl]-11- (phenylsulfanyl)-15- oxatetracydo[6.6.1.0^2,^7.0^9,1^4] pentadeca-2,4,6,9,11,13- hexaene-4-carboxamide [Example 164] | 6.86 |
| (±)-N-[(6-amino-2,4-dimethyl- pyridin-3-yl)methyl]-12-(2,4- difluorophenyl)-11-ethenyl-15- oxatetracyclo[6.6.1.0^2,^7.0^9,1^4] pentadeca-2,4,6,9,11,13- hexaene-4-carboxamide and (±)-N-[(6-amino-2,4- dimethylpyridin-3-yl)methyl]- 11-(2,4-difluorophenyl)-12- ethenyl-15-oxatetraoyclo [6.6.1.0^2,^7.0^9,1^4]pentadeca- 2,4,6,9,11,13-hexaene-4- carboxamide [Example 322] | 8.57 |
| (±)-N-[(6-amino-2,4-dimethyl- pyridin-3-yl)methyl]-12-(2,4- difluorophenyl)-11-methyl-15- oxatetracyclo[6.6.1.0^2,^7.0^9,1^4] pentadeca-2,4,6,9(14),10,12- hexaene-4-carboxamide and (±)-N-[(6-amino-2,4- dimethylpyridin-3-yl)methyl]-11- (2,4-difluorophenyl)-12- methyl-15-oxatetracyclo [6.6.1.0^2,^7.0^9,1^4]pentadeca- 2,4,6,9(14),10,12-hexaene-4- carboxamide [Example 310] | 7.7 |
| (±)-N-[(6-amino-4-ethoxy- 2-methylpyridin-3-yl)methyl]-12- (2,4-difluorophenyl)-16-oxo-15- azatetracyclo[6.6.1.0^2,^7.0^9,1^4] hexadeca-2,4,6,9,11,13- hexaene-4-carboxamide and (±)-N-[(6-amino-4-ethoxy-2- methylpyridin-3-yl)methyl]- 11-(2,4-difluorophenyl)-16-oxo- 15-azatetracyclo[6.6.1.0^2,^7.0^9,1^4] hexadeca-2,4,6,9,11,13- hexaene-4-carboxamide [Example 163] | 6.11 |

Same assay, conditions: read-out: KLKB1 pIC50 (converted)

| Compound | IC50 |
| --- | --- |
| COc1cc(CNC(=O)c2ccc3c(c2)[C@@H]2O[C@H]3c3ccc(-c4ccc(F)cc4F)cc32)ccc1C(=N)N (single isomer, unassigned) [Example 338] | 0.00589 µM |
| O=C(NC1CCCNCC1)c1ccc2c(c1)[C@@H]1O[C@H]2c2ccc(-c3ccc(F)cc3F)cc21 (single isomer, unassigned) [Example 343] | 100 µM |
| Nc1cc(NC(=O)c2ccc3c(c2)[C@@H]2O[C@H]3c3ccc(-c4ccc(F)cc4F)cc32)ccn1 (single isomer, unassigned) [Example 347] | 100 µM |
| CCc1cc2c(cc1CC)[C@H]1O[C@@H]2c2ccc(C(=O)NCc3ccc(C(=N)N)cc3)cc21 (single isomer, unassigned) [Example 392] | 0.001 µM |
| N=C(N)c1ccc(CNC(=O)c2ccc3c(c2)[C@H]2O[C@@H]3c3cc(C4CC4)c(C4CC4)cc32)cc1 (single isomer, unassigned) [Example 399] | 0.1 µM |
| N=C(N)c1ccc(CNC(=O)c2ccc3c(c2)[C@@H]2O[C@H]3c3cc(C4CC4)c(C4CC4)cc32)cc1 (single isomer, unassigned) [Example 400] | 0.001 µM |
